Assay results: PubChem BioAssay (NCI)
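Values below derive from 48-hour exposures of cells grown in 96-well plates, with endpoints linearly interpolated between the two concentrations bracketing the appropriate inhibition level. GI50 is the concentration that inhibits growth by half. TGI marks complete inhibition of growth.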

Columns and labels:
Assay in all cases: NCI-60 cell line screen, 48 h
[1] = tested on: OVCAR-8 ovarian
[2] = tested on: NCI-H460 lung
[3] = tested on: UO-31 renal
[4] = tested on: OVCAR-5 ovarian
[5] = tested on: K-562 leukemia
[6] = tested on: A498 renal
[7] = tested on: MCF7 breast
[8] = tested on: HCC-2998 colon
[9] = tested on: IGROV1 ovarian
[10] = tested on: NCI-H522 lung
[11] = tested on: COLO 205 colon
[12] = tested on: HT29 colon
[13] = tested on: PC-3 prostate
[14] = tested on: RPMI-8226 leukemia
[15] = tested on: HOP-92 NSCLC
[16] = tested on: MDA-MB-231 breast
[17] = tested on: 786-0 renal
[18] = tested on: EKVX NSCLC
[19] = tested on: HOP-62 NSCLC
[20] = tested on: TK-10 renal
[21] = tested on: NCI-H226 lung
[22] = tested on: SF-539 CNS
[23] = tested on: SK-MEL-28 melanoma
[24] = tested on: SK-OV-3 ovarian
[25] = tested on: CCRF-CEM leukemia
[26] = tested on: SK-MEL-2 melanoma
[27] = tested on: HCT-15 colon
[28] = tested on: KM12 colon
[29] = tested on: CAKI-1 renal
[30] = tested on: T-47D breast
[31] = tested on: OVCAR-3 ovarian
[32] = tested on: MDA-MB-435
[33] = tested on: HCT-116 colon
[34] = tested on: MDA-MB-468 breast
[35] = tested on: NCI/ADR-RES ovarian
[36] = tested on: SW-620 colon
[37] = tested on: SF-295 CNS
[38] = tested on: LOX IMVI melanoma
[39] = tested on: UACC-62 melanoma
[40] = tested on: MOLT-4 leukemia
[41] = tested on: MALME-3M melanoma
[42] = tested on: OVCAR-4 ovarian
[43] = tested on: SNB-19 CNS
[44] = tested on: DU-145 prostate
[45] = tested on: RXF 393 renal
[46] = tested on: SN12C renal
[47] = tested on: NCI-H23 lung
[48] = tested on: ACHN renal
[49] = tested on: SR leukemia
[50] = tested on: SK-MEL-5 melanoma
[51] = tested on: U251 CNS
[52] = tested on: BT-549 breast
[53] = tested on: M14 melanoma
[54] = tested on: HL-60(TB) leukemia
[55] = tested on: A549 NSCLC
[56] = tested on: UACC-257 melanoma
[57] = tested on: HS 578T breast
[58] = tested on: SF-268 CNS

`O=C(NNc1nc2cc(F)ccc2n2c(CN3CC4CNCC4C3)ccc12)c1ccncn1` (stereo unspecified) showed a GI50 [1] of 1.29 µM, a TGI [1] of 10.4 µM and a GI50 [2] of 0.591 µM. The TGI [2] was 16.1 µM, the GI50 [3] was 0.822 µM and the TGI [3] was 11.7 µM. The GI50 [4] was 2.49 µM, the TGI [4] was 17.5 µM and the GI50 [5] was 1.76 µM. It also gave a TGI [5] of 11.9 µM, a GI50 [6] of 24.9 µM and a TGI [6] of 40.4 µM. The GI50 [7] was 2 µM, the TGI [7] was 12.1 µM and the GI50 [8] was 3.05 µM. The TGI [8] was 17.5 µM, the GI50 [9] was 2.36 µM and the TGI [9] was 13.3 µM. The GI50 [10] was 2.36 µM, the TGI [10] was 11.7 µM and the GI50 [11] was 3.05 µM. The TGI [11] was 12.1 µM, the GI50 [12] was 2.02 µM and the TGI [12] was 18.1 µM. For the same molecule, the GI50 [13] was 2.11 µM, the TGI [13] was 15.4 µM and the GI50 [14] was 1.95 µM. The TGI [14] was 10.8 µM, the GI50 [15] was 0.0544 µM and the TGI [15] was 6.37 µM. For the same molecule, the GI50 [16] was 2.31 µM, the TGI [16] was 16.2 µM and the GI50 [17] was 0.5 µM. It also gave a TGI [17] of 11.3 µM, a GI50 [18] of 0.441 µM and a TGI [18] of 9.23 µM. It also gave a GI50 [19] of 0.686 µM, a TGI [19] of 12.1 µM and a GI50 [20] of 0.648 µM. The TGI [20] was 16.4 µM, the GI50 [21] was 0.943 µM and the TGI [21] was 6.73 µM. The GI50 [22] was 1.56 µM, the TGI [22] was 6.4 µM and the GI50 [23] was 2.36 µM. It also gave a TGI [23] of 14.1 µM, a GI50 [24] of 0.984 µM and a TGI [24] of 12.1 µM. The GI50 [25] was 1.55 µM, the TGI [25] was 6.18 µM and the GI50 [26] was 2.65 µM. The TGI [26] was 14.7 µM, the GI50 [27] was 0.746 µM and the TGI [27] was 15.9 µM. The GI50 [28] was 1.78 µM, the TGI [28] was 16.2 µM and the GI50 [29] was 0.654 µM. It also gave a TGI [29] of 12.8 µM, a GI50 [30] of 3.11 µM and a TGI [30] of 14.7 µM. It also gave a GI50 [31] of 3.26 µM, a TGI [31] of 17.3 µM and a GI50 [32] of 3.68 µM. The TGI [32] was 17.6 µM, the GI50 [33] was 0.73 µM and the TGI [33] was 13.7 µM. The GI50 [34] was 1.21 µM, the TGI [34] was 3.57 µM and the GI50 [35] was 11.5 µM. The TGI [35] was 29.9 µM, the GI50 [36] was 2.55 µM and the TGI [36] was 23.1 µM. For the same molecule, the GI50 [37] was 0.421 µM, the TGI [37] was 10.7 µM and the GI50 [38] was 1 µM. For the same molecule, the TGI [38] was 4.05 µM, the GI50 [39] was 1.19 µM and the TGI [39] was 3.41 µM. The GI50 [40] was 1.45 µM, the TGI [40] was 9.6 µM and the GI50 [41] was 2.17 µM. For the same molecule, the TGI [41] was 8.75 µM, the GI50 [42] was 1.56 µM and the TGI [42] was 17.3 µM. For the same molecule, the GI50 [43] was 2.67 µM, the TGI [43] was 16.6 µM and the GI50 [44] was 3.26 µM. For the same molecule, the TGI [44] was 15.7 µM, the GI50 [45] was 1.58 µM and the TGI [45] was 12.8 µM. The GI50 [46] was 1.79 µM, the TGI [46] was 11.8 µM and the GI50 [47] was 2.31 µM. The TGI [47] was 10.4 µM, the GI50 [48] was 0.62 µM and the TGI [48] was 11.2 µM. It also gave a GI50 [49] of 0.751 µM, a TGI [49] of 9.24 µM and a GI50 [50] of 1.52 µM. For the same molecule, the TGI [50] was 8.29 µM, the GI50 [51] was 0.78 µM and the TGI [51] was 12.2 µM. For the same molecule, the GI50 [52] was 1.59 µM, the TGI [52] was 13.2 µM and the GI50 [53] was 0.804 µM. For the same molecule, the TGI [53] was 4.74 µM, the GI50 [54] was 1.23 µM and the TGI [54] was 4.51 µM. The GI50 [55] was 2.09 µM, the TGI [55] was 14.9 µM and the GI50 [56] was 3.16 µM. The TGI [56] was 11 µM, the GI50 [57] was 10 µM and the TGI [57] was 81.9 µM. The GI50 [58] was 1.71 µM and the TGI [58] was 15 µM.
